The numbers were not newly measured in patent publication US8952000B2, “Cholesterol absorption inhibitor and omega 3 fatty acids for the reduction of cholesterol and for the prevention or reduction of cardiovascular, cardiac and vascular events” (Pivotal Therapeutics Inc., priority 2011, dated 2015), which cites them from elsewhere.

Molecules are shown by their SMILES.

`O=C1[C@H](CC[C@H](O)c2ccc(F)cc2)[C@@H](c2ccc(O)cc2)N1c1ccc(F)cc1` [Ezetimibe, (3R,4S)-1-(p-fluorophenyl)-3-[(3S)-3-(p-fluorophenyl)-3-hydroxypropyl]-4-(p-hydroxyphenyl)-2-azetidinone]: the “solubility in ethanol, methanol, and acetone” value (ethanol, methanol, acetone) is recorded as “freely to very soluble”. Also, the solubility in water result (water) is recorded as “practically insoluble”.
